# Target: T1, NLRP3 inflammasome (Homo sapiens, UniProt Q96P20)
# T1 construct: host or cells: THP1-Null cells (PMA-differentiated, LPS-primed, nigericin-stimulated)
# Experiment: Evaluation of NLRP3 inflammasome inhibitory activity (inhibition of IL-1β production in LPS/Nigericin-stimulated THP1-Null cells, AlphaLISA)
# Assay type: cell-based
# Conditions: IC50, IL-1β production in THP1-Null cells; PMA, 1 µg/mL Lipopolysaccharides 3 hours, Nigericin 7.5 µmol/L 1.5 hours
# Description: The NLRP3 inflammasome inhibitory activity of test compounds were evaluated on the basis of the inhibitory activity of the IL-1β production in THP1-Null cells (Product Number: thp-null, InvivoGen).
# The supernatant of the culture was removed, and thereto was added media for assay (25 µL/well) containing 1 µg/mL Lipopolysaccharides (Product Number: L2654, Sigma-Aldrich (registered trademark)). […] The supernatant of the culture was removed. […] A solution containing a test compound (20 µL/well) was added to test compound-setting wells. […] The supernatant of the culture was cryonically stored (set at -20°C) until measurement of IL-1β.
# The amount of IL-1β in the culture supernatant was quantitated with AlphaLISA (registered trademark) Human IL-1β Detection Kit (Product Number: AL220C, Perkin Elmer). Fluorescence intensity was measured with a microplate reader EnSpier (Model number: 2300-00J, Perkin Elmer) or EnSight (Model number: HH34000000, Perkin Elmer) according to procedure manuals attached thereto. Inhibition rates of the test compound-setting wells were calculated on the basis of 100% for the blank-setting wells and 0% for the control-setting wells.
# T1 sequence (Q96P20 whole entry): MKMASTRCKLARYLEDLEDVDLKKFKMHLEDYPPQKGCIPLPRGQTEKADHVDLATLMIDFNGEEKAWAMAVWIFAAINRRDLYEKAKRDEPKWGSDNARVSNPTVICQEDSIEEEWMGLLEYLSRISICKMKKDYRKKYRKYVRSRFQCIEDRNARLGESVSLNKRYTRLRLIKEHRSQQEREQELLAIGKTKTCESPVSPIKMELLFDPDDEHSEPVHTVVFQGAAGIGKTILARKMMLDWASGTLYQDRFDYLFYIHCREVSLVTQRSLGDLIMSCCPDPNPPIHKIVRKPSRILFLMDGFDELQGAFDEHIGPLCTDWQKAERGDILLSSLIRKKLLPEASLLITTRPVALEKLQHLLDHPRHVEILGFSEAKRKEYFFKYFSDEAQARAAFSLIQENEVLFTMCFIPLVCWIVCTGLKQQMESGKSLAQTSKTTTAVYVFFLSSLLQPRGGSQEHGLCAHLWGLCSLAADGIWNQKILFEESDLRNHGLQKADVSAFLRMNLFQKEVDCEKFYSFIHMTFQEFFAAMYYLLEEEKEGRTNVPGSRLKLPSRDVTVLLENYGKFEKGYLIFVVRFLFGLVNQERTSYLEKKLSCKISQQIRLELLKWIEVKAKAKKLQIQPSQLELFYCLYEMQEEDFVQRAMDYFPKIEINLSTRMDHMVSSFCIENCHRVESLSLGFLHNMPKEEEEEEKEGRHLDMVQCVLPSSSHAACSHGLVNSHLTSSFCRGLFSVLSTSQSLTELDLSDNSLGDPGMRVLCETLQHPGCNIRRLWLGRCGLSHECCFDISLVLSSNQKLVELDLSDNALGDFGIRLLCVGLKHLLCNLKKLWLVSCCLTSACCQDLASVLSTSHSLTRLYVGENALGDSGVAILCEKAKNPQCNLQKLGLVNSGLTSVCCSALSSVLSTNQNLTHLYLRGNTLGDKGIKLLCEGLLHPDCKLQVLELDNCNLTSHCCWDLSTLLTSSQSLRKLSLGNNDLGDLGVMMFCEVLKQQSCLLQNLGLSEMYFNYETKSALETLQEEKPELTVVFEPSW
row,Compound,IC50
1,Cc1cc(Br)cc(C)c1-n1cc2c(=O)[nH]c(C3CC4CCN3CC4)nc2n1 (racemic) [Example 100],54 nM
2,Cc1cc(C2CC2)cc(C)c1-n1cc2c(=O)[nH]c(C3CC4CCN3CC4)nc2n1 (racemic) [Example 119],31 nM
3,Cc1cc(C2CC2)cc(C)c1-n1cc2c(=O)[nH]c([C@@H]3C[C@H]3C#N)nc2n1 (racemic) [Example 152],12 nM

# Same assay, conditions: IL-1β production in THP1-Null cells; PMA, 1 µg/mL Lipopolysaccharides 3 hours, Nigericin 7.5 µmol/L 1.5 hours
row,Compound,IC50
1,Cc1cc(C2CC2)cc(C)c1-n1cc2c(=O)[nH]c(C3CCOC3)nc2n1 (racemic) [Example 29],9 nM
2,Cc1cc(C2CC2)cc(C)c1-n1cc2c(=O)[nH]c(C(C)O)nc2n1 (racemic) [Example 123],23 nM
3,Cc1cc(C2CC2)cc(C)c1-n1cc2c(=O)[nH]c(C(O)C(F)F)nc2n1 (racemic) [Example 158],26 nM
4,Cc1cc(C(C)(F)F)cc(C)c1-n1cc2c(=O)[nH]c(C3CCOCCO3)nc2n1 (racemic) [Example 168],74 nM
5,Cc1cc(OC(F)F)cc(C)c1-n1cc2c(=O)[nH]c([C@@H]3C[C@H]3F)nc2n1 (racemic) [Example 171],24 nM
6,"Cc1cc(C2CC2)cc(C)c1-n1cc2c(=O)[nH]c(C3CCOC3)nc2n1 (single isomer, unassigned) [Example 50]",5 nM
7,"Cc1cc(C2CC2)cc(C)c1-n1cc2c(=O)[nH]c(C3CCOC3)nc2n1 (single isomer, unassigned) [Example 51]",24 nM
8,"Cc1cc(C2CC2)cc(C)c1-n1cc2c(=O)[nH]c(C3(F)CCOC3)nc2n1 (single isomer, unassigned) [Example 78]",33 nM
9,"Cc1cc(C2CC2)cc(C)c1-n1cc2c(=O)[nH]c(C3(F)CCOC3)nc2n1 (single isomer, unassigned) [Example 79]",75 nM
10,"COC1CC(c2nc3nn(-c4c(C)cc(Br)cc4C)cc3c(=O)[nH]2)C1 (single isomer, unassigned) [Example 121]",38 nM
11,"COC1CC(c2nc3nn(-c4c(C)cc(Br)cc4C)cc3c(=O)[nH]2)C1 (single isomer, unassigned) [Example 122]",61 nM
12,"Cc1cc(C(C)(F)F)cc(C)c1-n1cc2c(=O)[nH]c(C3(F)CCOC3)nc2n1 (single isomer, unassigned) [Example 129]",50 nM

# Same assay, conditions: IL-1β production in THP1-Null cells; PMA, 1 µg/mL Lipopolysaccharides 3 hours, Nigericin 7.5 µmol/L 1.5 hours; read-out: IC50
row,Compound,IC50
1,Cc1cc(Br)cc(C)c1-n1cc2c(=O)[nH]c(C3COCCO3)nc2n1 (racemic) [Example 28],190 nM
2,Cc1ccc(-n2cc3c(=O)[nH]c(C4CCCO4)nc3n2)c(C)c1 (racemic) [Example 31],790 nM
3,Cc1ccc(-n2cc3c(=O)[nH]c(C4CCS(=O)(=O)C4)nc3n2)c(C)c1 (racemic) [Example 32],270 nM
4,Cc1ccc(-n2cc3c(=O)[nH]c(C4CCCOC4)nc3n2)c(C)c1 (racemic) [Example 34],200 nM
5,Cc1ccc(-n2cc3c(=O)[nH]c(C4CCO4)nc3n2)c(C)c1 (racemic) [Example 35],2100 nM
6,Cc1cc(C2CC2)cc(C)c1-n1cc2c(=O)[nH]c(C3CCO3)nc2n1 (racemic) [Example 36],150 nM
7,Cc1ccc(-n2cc3c(=O)[nH]c(C4CCCCO4)nc3n2)c(C)c1 (racemic) [Example 40],430 nM
8,COC(C)c1nc2nn(-c3c(C)cc(C4CC4)cc3C)cc2c(=O)[nH]1 (racemic) [Example 41],93 nM
9,Cc1cc(Br)cc(C)c1-n1cc2c(=O)[nH]c(COC3CCCOC3)nc2n1 (racemic) [Example 56],350 nM
10,Cc1cc(C2CC2)cc(C)c1-n1cc2c(=O)[nH]c(COC3CCCOC3)nc2n1 (racemic) [Example 57],340 nM
11,Cc1cc(OC(F)F)cc(C)c1-n1cc2c(=O)[nH]c(C3CCOC3)nc2n1 (racemic) [Example 63],45 nM
12,COC1(c2nc3nn(-c4c(C)cc(Br)cc4C)cc3c(=O)[nH]2)CCOC1 (racemic) [Example 86],350 nM
13,Cc1cc(C2CC2)cc(C)c1-n1cc2c(=O)[nH]c(C3CC3F)nc2n1 (racemic) [Example 93],8 nM
14,Cc1cc(Br)cc(C)c1-n1cc2c(=O)[nH]c(CC3COCCO3)nc2n1 (racemic) [Example 113],140 nM
15,Cc1cc(C2CC2)cc(C)c1-n1cc2c(=O)[nH]c(C3CC3(F)F)nc2n1 (racemic) [Example 114],17 nM
16,Cc1cc(C2CC2)cc(C)c1-n1cc2c(=O)[nH]c(C34CCOCC3C4(F)F)nc2n1 (racemic) [Example 115],430 nM
17,Cc1cc(Br)cc(C)c1-n1cc2c(=O)[nH]c(C34CCC(CO3)C4)nc2n1 (racemic) [Example 117],240 nM
18,COCC1C(c2nc3nn(-c4c(C)cc(C5CC5)cc4C)cc3c(=O)[nH]2)C1(F)F (racemic) [Example 120],40 nM
19,Cc1cc(C2CC2)cc(C)c1-n1cc2c(=O)[nH]c(C3CC3CO)nc2n1 (racemic) [Example 124],8 nM
20,Cc1cc(C(C)(F)F)cc(C)c1-n1cc2c(=O)[nH]c(C3CC3(F)F)nc2n1 (racemic) [Example 125],24 nM
21,Cc1cc(Br)cc(C)c1-n1cc2c(=O)[nH]c(CC(O)C(F)(F)F)nc2n1 (racemic) [Example 126],24 nM
22,COC(Cc1nc2nn(-c3c(C)cc(Br)cc3C)cc2c(=O)[nH]1)C(F)(F)F (racemic) [Example 127],73 nM
23,Cc1cc(C2CC2)cc(C)c1-n1cc2c(=O)[nH]c(C(C)F)nc2n1 (racemic) [Example 128],44 nM

row,Compound,IC50
1,Cc1cc(OC(F)F)cc(C)c1-n1cc2c(=O)[nH]c(C3CC3(F)F)nc2n1 (racemic) [Example 133],41 nM
2,CCC(O)c1nc2nn(-c3c(C)cc(C4CC4)cc3C)cc2c(=O)[nH]1 (racemic) [Example 134],24 nM
3,Cc1cc(Br)cc(C)c1-n1cc2c(=O)[nH]c(C(C)O)nc2n1 (racemic) [Example 137],24 nM
4,Cc1cc(Br)cc(C)c1-n1cc2c(=O)[nH]c(C(O)C(F)(F)F)nc2n1 (racemic) [Example 138],120 nM
5,Cc1cc(Br)cc(C)c1-n1cc2c(=O)[nH]c(C(O)C(F)F)nc2n1 (racemic) [Example 139],36 nM
6,Cc1cc(Br)cc(C)c1-n1cc2c(=O)[nH]c(C(O)C3CC3)nc2n1 (racemic) [Example 140],46 nM
7,"Cc1cc(OC(F)F)cc(C)c1-n1cc2c(=O)[nH]c(C(C)O)nc2n1 (racemic) [Example 141, (RS)-2-{4-(difluoromethoxy)-2,6-dimethylphenyl}-6-(1-hydroxyethyl)-2,5-dihydro-4H-pyrazolo[3,4-d]pyrimidin-4-one]",61 nM
8,"Cc1cc(C(C)(F)F)cc(C)c1-n1cc2c(=O)[nH]c([C@H]3C[C@@H]3F)nc2n1 (racemic) [Example 142, 2-[4-(1,1-difluoroethyl)-2,6-dimethylphenyl]-6-[(1RS,2SR)-2-fluorocyclopropyl]-2,5-dihydro-4H-pyrazolo[3,4-d]pyrimidin-4-one]",17 nM
9,COCC(O)Cc1nc2nn(-c3c(C)cc(C4CC4)cc3C)cc2c(=O)[nH]1 (racemic) [Example 143],86 nM
10,"Cc1cc(C(C)(F)F)cc(C)c1-n1cc2c(=O)[nH]c(C(C)O)nc2n1 (racemic) [Example 144, (RS)-2-{4-(1,1-difluoroethyl)-2,6-dimethylphenyl}-6-(1-hydroxyethyl)-2,5-dihydro-4H-pyrazolo[3,4-d]pyrimidin-4-one]",58 nM
11,Cc1cc(Br)cc(C)c1-n1cc2c(=O)[nH]c(C3CC3C(=O)N(C)C)nc2n1 (racemic) [Example 149],22 nM
12,Cc1cc(Br)cc(C)c1-n1cc2c(=O)[nH]c(C3CC3C(N)=O)nc2n1 (racemic) [Example 150],18 nM
13,Cc1cc(Br)cc(C)c1-n1cc2c(=O)[nH]c(C3CC3C#N)nc2n1 (racemic) [Example 151],17 nM
14,Cc1cc(Br)cc(C)c1-n1cc2c(=O)[nH]c(C3CCOCCO3)nc2n1 (racemic) [Example 160],37 nM
15,"Cc1cc(C2CC2)cc(C)c1-n1cc2c(=O)[nH]c(C3CCOCCO3)nc2n1 (racemic) [Example 163, (RS)-2-(4-cyclopropyl-2,6-dimethylphenyl)-6-(1,4-dioxepan-5-yl)-2,5-dihydro-4H-pyrazolo[3,4-d]pyrimidin-4-one]",23 nM
16,Cc1cc(OC(F)F)cc(C)c1-n1cc2c(=O)[nH]c(C(O)C(F)F)nc2n1 (racemic) [Example 167],230 nM
17,Cc1cc(Br)cc(C)c1-n1cc2c(=O)[nH]c(C3CC(F)(F)CCO3)nc2n1 (racemic) [Example 184],51 nM
18,Cc1cc(Br)cc(C)c1-n1cc2c(=O)[nH]c(C3CC(F)(F)CO3)nc2n1 (racemic) [Example 189],71 nM
19,Cc1cc(C2CC2)cc(C)c1-n1cc2c(=O)[nH]c(C3CC(F)(F)CO3)nc2n1 (racemic) [Example 190],41 nM
20,Cc1cc(Br)cc(C)c1-n1cc2c(=O)[nH]c(C3CCC(F)(F)CO3)nc2n1 (racemic) [Example 191],72 nM
21,Cc1cc(C2CC2)cc(C)c1-n1cc2c(=O)[nH]c(C3CC(F)(F)CCO3)nc2n1 (racemic) [Example 197],36 nM
22,"Cc1cc(Br)cc(C)c1-n1cc2c(=O)[nH]c(C3CCOCC3O)nc2n1 (single isomer, unassigned) [Example 104]",15 nM

# — patent EP4671247A1, “SUBSTITUTED PYRAZOLOPYRIMIDINE COMPOUND AND PHARMACEUTICAL USE THEREOF” (Japan Tobacco Inc., priority 2023, dated 2024)
